# Laboratory results taken from US20220162167A1, “SUBSTITUTED BICYCLIC AND TETRACYCLIC QUINONES AND USE THEREOF AS ANTI-CANCER AGENTS” (THE REGENTS OF THE UNIVERSITY OF MICHIGAN, priority 2019, published 2022).
# Key:
# Type in all cases: cell-based
# HCT-116 = experiment: NCI60 growth inhibition, HCT-116; settings: Colon Cancer
# Procedure: (§1) Representative compounds were tested in 60 cell lines (NCI60) at the National Cancer Institute, Developmental Therapeutics Program.
# (§2) Representative compounds were tested in a panel of 60 cancer cells (NCI 60) at the National Cancer Institute. Growth inhibition are shown in table 2, table 3, table 4, table 5, and FIG. 1, FIG. 2, FIG. 3, FIG. 4, FIG. 5.
# LOX IMVI = experiment: NCI60 growth inhibition, LOX IMVI; settings: Melanoma
# Procedure: as §1, §2
# ACHN = experiment: NCI60 growth inhibition, ACHN; settings: Renal Cancer
# Procedure: as §1, §2
# K-562 = experiment: NCI60 growth inhibition, K-562; settings: Leukemia
# Procedure: as §1, §2
# SNB-75 = experiment: NCI60 growth inhibition, SNB-75; settings: CNS Cancer; further: test concentration or dose not given here
# Procedure: as §1, §2
# RPMI-8226 = experiment: NCI60 growth inhibition, RPMI-8226; settings: Leukemia
# Procedure: as §1, §2
# RXF 393 = experiment: NCI60 growth inhibition, RXF 393; settings: Renal Cancer
# Procedure: as §1, §2
# NCI-H460 = experiment: NCI60 growth inhibition, NCI-H460; settings: Non-Small Cell Lung Cancer
# Procedure: as §1, §2
# T-47D = experiment: NCI60 growth inhibition, T-47D; settings: Breast Cancer
# Procedure: as §1, §2
# KM12 = experiment: NCI60 growth inhibition, KM12; settings: Colon Cancer; further: test concentration or dose not given here
# Procedure: as §1, §2
# SK-MEL-5 = experiment: NCI60 growth inhibition, SK-MEL-5; settings: Melanoma
# Procedure: as §1, §2
# HCC-2998 = experiment: NCI60 growth inhibition, HCC-2998; settings: Colon Cancer
# Procedure: as §1, §2
# NCI-H23 = experiment: NCI60 growth inhibition, NCI-H23; settings: Non-Small Cell Lung Cancer
# Procedure: as §1, §2
# MALME-3M = experiment: NCI60 growth inhibition, MALME-3M; settings: Melanoma
# Procedure: as §1, §2
# HCT-15 = experiment: NCI60 growth inhibition, HCT-15; settings: Colon Cancer; further: test concentration or dose not given here
# Procedure: as §1, §2
# IGROV1 = experiment: NCI60 growth inhibition, IGROV1; settings: Ovarian Cancer
# Procedure: as §1, §2
# HT29 = experiment: NCI60 growth inhibition, HT29; settings: Colon Cancer
# Procedure: as §1, §2
# TK-10 = experiment: NCI60 growth inhibition, TK-10; settings: Renal Cancer
# Procedure: as §1, §2
# A498 = experiment: NCI60 growth inhibition, A498; settings: Renal Cancer; further: test concentration or dose not given here
# Procedure: as §1, §2
# M14 = experiment: NCI60 growth inhibition, M14; settings: Melanoma
# Procedure: as §1, §2
# HOP-92 = experiment: NCI60 growth inhibition, HOP-92; settings: Non-Small Cell Lung Cancer
# Procedure: as §1, §2
# MOLT-4 = experiment: NCI60 growth inhibition, MOLT-4; settings: Leukemia
# Procedure: as §1, §2
# MDA-MB-231/ATCC = experiment: NCI60 growth inhibition, MDA-MB-231/ATCC; settings: Breast Cancer
# Procedure: as §1, §2
# NCI-H226 = experiment: NCI60 growth inhibition, NCI-H226; settings: Non-Small Cell Lung Cancer; further: test concentration or dose not given here
# Procedure: as §1, §2
# A549/ATCC = experiment: NCI60 growth inhibition, A549/ATCC; settings: Non-Small Cell Lung Cancer
# Procedure: as §1, §2
# OVCAR-5 = experiment: NCI60 growth inhibition, OVCAR-5; settings: Ovarian Cancer
# Procedure: as §1, §2
# UACC-62 = experiment: NCI60 growth inhibition, UACC-62; settings: Melanoma; further: test concentration or dose not given here
# Procedure: as §1, §2
# SF-268 = experiment: NCI60 growth inhibition, SF-268; settings: CNS Cancer; further: test concentration or dose not given here
# Procedure: as §1, §2
# NCI/ADR-RES = experiment: NCI60 growth inhibition, NCI/ADR-RES; settings: Ovarian Cancer
# Procedure: as §1, §2
# COLO 205 = experiment: NCI60 growth inhibition, COLO 205; settings: Colon Cancer
# Procedure: as §1, §2
# UO-31 = experiment: NCI60 growth inhibition, UO-31; settings: Renal Cancer
# Procedure: as §1, §2
# CAKI-1 = experiment: NCI60 growth inhibition, CAKI-1; settings: Renal Cancer; further: test concentration or dose not given here
# Procedure: as §1, §2
# U251 = experiment: NCI60 growth inhibition, U251; settings: CNS Cancer
# Procedure: as §1, §2
# PC-3 = experiment: NCI60 growth inhibition, PC-3; settings: Prostate Cancer
# Procedure: as §1, §2
# OVCAR-4 = experiment: NCI60 growth inhibition, OVCAR-4; settings: Ovarian Cancer; further: test concentration or dose not given here
# Procedure: as §1, §2
# 786-0 = experiment: NCI60 growth inhibition, 786-0; settings: Renal Cancer
# Procedure: as §1, §2
# HOP-62 = experiment: NCI60 growth inhibition, HOP-62; settings: Non-Small Cell Lung Cancer; further: test concentration or dose not given here
# Procedure: as §1, §2
# MCF7 = experiment: NCI60 growth inhibition, MCF7; settings: Breast Cancer
# Procedure: as §1, §2
# NCI-H322M = experiment: NCI60 growth inhibition, NCI-H322M; settings: Non-Small Cell Lung Cancer
# Procedure: as §1, §2
# SK-MEL-28 = experiment: NCI60 growth inhibition, SK-MEL-28; settings: Melanoma
# Procedure: as §1, §2
# SK-OV-3 = experiment: NCI60 growth inhibition, SK-OV-3; settings: Ovarian Cancer
# Procedure: as §1, §2
# UACC-257 = experiment: NCI60 growth inhibition, UACC-257; settings: Melanoma; further: test concentration or dose not given here
# Procedure: as §1, §2
# SN12C = experiment: NCI60 growth inhibition, SN12C; settings: Renal Cancer
# Procedure: as §1, §2
# SF-295 = experiment: NCI60 growth inhibition, SF-295; settings: CNS Cancer; further: test concentration or dose not given here
# Procedure: as §1, §2
# MDA-MB-468 = experiment: NCI60 growth inhibition, MDA-MB-468; settings: Breast Cancer; further: test concentration or dose not given here
# Procedure: as §1, §2
# NCI-H522 = experiment: NCI60 growth inhibition, NCI-H522; settings: Non-Small Cell Lung Cancer
# Procedure: as §1, §2
# CCRF-CEM = experiment: NCI60 growth inhibition, CCRF-CEM; settings: Leukemia
# Procedure: as §1, §2
# DU-145 = experiment: NCI60 growth inhibition, DU-145; settings: Prostate Cancer
# Procedure: as §1, §2
# OVCAR-3 = experiment: NCI60 growth inhibition, OVCAR-3; settings: Ovarian Cancer
# Procedure: as §1, §2
# HL-60(TB) = experiment: NCI60 growth inhibition, HL-60(TB); settings: Leukemia
# Procedure: as §1, §2
# HS 578T = experiment: NCI60 growth inhibition, HS 578T; settings: Breast Cancer
# Procedure: as §1, §2
# SK-MEL-2 = experiment: NCI60 growth inhibition, SK-MEL-2; settings: Melanoma; further: test concentration or dose not given here
# Procedure: as §1, §2
# SNB-19 = experiment: NCI60 growth inhibition, SNB-19; settings: CNS Cancer; further: test concentration or dose not given here
# Procedure: as §1, §2
# SF-539 = experiment: NCI60 growth inhibition, SF-539; settings: CNS Cancer
# Procedure: as §1, §2
# MDA-MB-435 = experiment: NCI60 growth inhibition, MDA-MB-435; settings: Melanoma
# Procedure: as §1, §2
# EKVX = experiment: NCI60 growth inhibition, EKVX; settings: Non-Small Cell Lung Cancer
# Procedure: as §1, §2
# SR = experiment: NCI60 growth inhibition, SR; settings: Leukemia
# Procedure: as §1, §2
# SW-620 = experiment: NCI60 growth inhibition, SW-620; settings: Colon Cancer; further: test concentration or dose not given here
# Procedure: as §1, §2
structure (smiles),measurement,setting,value
"Cc1ccc2c(n1)C(=O)C(Cl)=C(Nc1ccc(N3CCN(C)CC3)cc1)C2=O [Compound 13, 7-chloro-2-methyl-6-((4-(4-methylpiperazin-1-yl)phenyl)amino)quinoline-5,8-dione]",Growth inhibition (% control) GIPRCNT,HCT-116,−64.939 % control
same,Growth inhibition (% control) GIPRCNT,LOX IMVI,−95.4404 % control
same,Growth inhibition (% control) GIPRCNT,ACHN,−93.75 % control
same,Growth inhibition (% control) GIPRCNT,K-562,−12.2778 % control
same,Growth inhibition (% control) GIPRCNT,SNB-75,−53.8363 % control
same,Growth inhibition (% control) GIPRCNT,RPMI-8226,−32.551 % control
same,Growth inhibition (% control) GIPRCNT,RXF 393,62.78 % control
same,Growth inhibition (% control) GIPRCNT,NCI-H460,97.22 % control
same,Growth inhibition (% control) GIPRCNT,T-47D,−61.1209 % control
same,Growth inhibition (% control) GIPRCNT,KM12,92.08 % control
same,Growth inhibition (% control) GIPRCNT,SK-MEL-5,10.39 % control
same,Growth inhibition (% control) GIPRCNT,HCC-2998,95.31 % control
same,Growth inhibition (% control) GIPRCNT,NCI-H23,16.65 % control
same,Growth inhibition (% control) GIPRCNT,MALME-3M,−75.4481 % control
same,Growth inhibition (% control) GIPRCNT,HCT-15,70.44 % control
same,Growth inhibition (% control) GIPRCNT,IGROV1,−83.5269 % control
same,Growth inhibition (% control) GIPRCNT,HT29,66.44 % control
same,Growth inhibition (% control) GIPRCNT,TK-10,100.0838 % control
same,Growth inhibition (% control) GIPRCNT,A498,100.8258 % control
same,Growth inhibition (% control) GIPRCNT,M14,73.83 % control
same,Growth inhibition (% control) GIPRCNT,HOP-92,−86.301 % control
same,Growth inhibition (% control) GIPRCNT,MOLT-4,−25.588 % control
same,Growth inhibition (% control) GIPRCNT,MDA-MB-231/ATCC,−62.773 % control
same,Growth inhibition (% control) GIPRCNT,NCI-H226,105.4813 % control
same,Growth inhibition (% control) GIPRCNT,A549/ATCC,97.64 % control
same,Growth inhibition (% control) GIPRCNT,OVCAR-5,−7.548 % control
same,Growth inhibition (% control) GIPRCNT,UACC-62,−49.3593 % control
same,Growth inhibition (% control) GIPRCNT,SF-268,77.72 % control
same,Growth inhibition (% control) GIPRCNT,NCI/ADR-RES,27.61 % control
same,Growth inhibition (% control) GIPRCNT,COLO 205,82.4617 % control
same,Growth inhibition (% control) GIPRCNT,UO-31,−97.3532 % control
same,Growth inhibition (% control) GIPRCNT,CAKI-1,−100 % control
same,Growth inhibition (% control) GIPRCNT,U251,8.466 % control
same,Growth inhibition (% control) GIPRCNT,PC-3,68.66 % control
same,Growth inhibition (% control) GIPRCNT,OVCAR-4,−100 % control
same,Growth inhibition (% control) GIPRCNT,786-0,52.18 % control
same,Growth inhibition (% control) GIPRCNT,HOP-62,63.65 % control
same,Growth inhibition (% control) GIPRCNT,MCF7,−61.9194 % control
same,Growth inhibition (% control) GIPRCNT,NCI-H322M,97.35 % control
same,Growth inhibition (% control) GIPRCNT,SK-MEL-28,30.32 % control
same,Growth inhibition (% control) GIPRCNT,SK-OV-3,89.88 % control
same,Growth inhibition (% control) GIPRCNT,UACC-257,57.23 % control
same,Growth inhibition (% control) GIPRCNT,SN12C,−88.5465 % control
same,Growth inhibition (% control) GIPRCNT,SF-295,99.36 % control
same,Growth inhibition (% control) GIPRCNT,MDA-MB-468,−84.6413 % control
same,Growth inhibition (% control) GIPRCNT,NCI-H522,−63.7561 % control
same,Growth inhibition (% control) GIPRCNT,CCRF-CEM,−6.237 % control
same,Growth inhibition (% control) GIPRCNT,DU-145,−18.6864 % control
same,Growth inhibition (% control) GIPRCNT,OVCAR-3,−100 % control
same,Growth inhibition (% control) GIPRCNT,HL-60(TB),−46.6759 % control
same,Growth inhibition (% control) GIPRCNT,HS 578T,58 % control
same,Growth inhibition (% control) GIPRCNT,SK-MEL-2,68.36 % control
same,Growth inhibition (% control) GIPRCNT,SNB-19,94.6 % control
same,Growth inhibition (% control) GIPRCNT,SF-539,−24.5048 % control
same,Growth inhibition (% control) GIPRCNT,MDA-MB-435,−99.1118 % control
same,Growth inhibition (% control) GIPRCNT,EKVX,−81.7903 % control
same,Growth inhibition (% control) GIPRCNT,SR,−5.054 % control
same,Growth inhibition (% control) GIPRCNT,SW-620,−69.7878 % control
